# Measured values published in patent US4698329A, “New renin-inhibitory peptides and their use” (Sankyo Company, Limited, priority 1984, dated 1987).
# Square brackets hold non-standard residues; d marks the D form. Peptide text beside a SMILES is read from it. * marks the point of attachment. 1Nal = N[C@@H](Cc1cccc2ccccc12)C(=O)O; Sta = CC(C)C[C@H](N)[C@@H](O)CC(=O)O; Cbz = O=C(OCc1ccccc1)*; NHBu = CCCCN*; NHNH2 = NN*
# Target: T1, human renin (Homo sapiens, UniProt P00797)
# T1 sequence (P00797 67-406): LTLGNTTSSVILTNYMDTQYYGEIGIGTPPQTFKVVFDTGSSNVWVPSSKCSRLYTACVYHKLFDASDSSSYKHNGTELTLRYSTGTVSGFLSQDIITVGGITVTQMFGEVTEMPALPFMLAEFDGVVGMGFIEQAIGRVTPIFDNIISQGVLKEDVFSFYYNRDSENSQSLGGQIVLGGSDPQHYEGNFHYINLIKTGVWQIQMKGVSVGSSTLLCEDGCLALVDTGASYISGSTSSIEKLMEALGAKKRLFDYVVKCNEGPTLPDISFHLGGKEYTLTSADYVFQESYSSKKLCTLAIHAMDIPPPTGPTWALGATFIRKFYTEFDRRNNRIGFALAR
# Assay: Inhibition of renin activity (human renin, sheep angiotensinogen)
# Type: biochemical
# Conditions: concentration of test cpd. 1 × 10^-5 M, pH 7.3, 10 minutes at 37° C., mean of 3 or 4 experiments
# Procedure: The ability of various compounds of the invention to inhibit the activity of renin was determined according to the following method, which follows essentially the procedure of Kokubu et al. [Hypertension, 5, 191-197 (1983)].
# Specifically, each test compound was dissolved in 60% v/v aqueous ethanol. Human renin activity in the presence and absence of each compound was measured using sheep angiotensinogen. The total volume of 1 ml of assay mixture contained 0.1 mole/liter phosphate buffer (pH 7.3), human renin (equivalent to 0.5 ng angiotensin I per ml per minute), sheep angiotensinogen (equivalent to 200 ng angiotensin I), the indicated concentration of the test compound, 6% ethanol and angiotensinase inhibitors (10 mmole/liter sodium ethylenediaminetetraacetate and 3.4 mmole/liter 8-hydroxyquinoline). The mixture was allowed to react for 10 minutes at 37° C., and then the reaction was stopped by placing the reaction tube in a boiling water bath for 5 minutes. The mixture was then centrifuged and the supernatant (0.05-0.1 ml) was used to assay remaining angiotensin I.
# An identical experiment was carried out, as a control, except that the test compound was omitted. From the values obtained were calculated the % inhibition of renin activity achieved by each test compound. The results are shown in the following Table, in which the compounds of the invention are identified by the numbers assigned to them in the foregoing list. The values given are the mean of 3 or 4 experiments.
row,SMILES,% Inhibition (human renin) [%]
1,"CC(C)C[C@H](NC(=O)[C@H](Cc1c[nH]cn1)NC(=O)[C@H](Cc1cccc2ccccc12)NC(=O)OCc1ccccc1)[C@@H](O)CC(=O)NN [Compound 38, 4(S)-[N-benzyloxycarbonyl-3-(1-naphthyl)-L-alanyl-L-histidyl]amino-3(S)-hydroxy-6-methylheptanoic acid hydrazide] (Cbz-[1Nal]-His-[Sta]-NHNH2)",89
2,"CC[C@H](C)[C@@H](CO)NC(=O)C[C@H](O)[C@H](CC(C)C)NC(=O)[C@H](Cc1c[nH]cn1)NC(=O)[C@H](Cc1cccc2ccccc12)NC(=O)OCc1ccccc1 [Compound 67, N-{4(S)-[N-benzyloxycarbonyl-3-(1-naphthyl)-L-alanyl-L-histidyl]amino-3(S)-hydroxy-6-methylheptanoyl}-L-isoleucinol]",98
3,"CC(C)C[C@H](NC(=O)[C@H](Cc1c[nH]cn1)NC(=O)[C@H](Cc1cccc2ccccc12)NC(=O)OCc1ccccc1)[C@@H](O)CC(=O)N1CCC(c2ccccc2)CC1 [Compound 36, 1-{4(S)-[N-benzyloxycarbonyl-3-(1-naphthyl)-L-alanyl-L-histidyl]amino-3(S)-hydroxy-6-methylheptanoyl}-4-phenylpiperidine]",84
4,"COC(=O)[C@@H](O)[C@H](CC(C)C)NC(=O)[C@H](Cc1c[nH]cn1)NC(=O)[C@H](Cc1cccc2ccccc12)NC(=O)OCc1ccccc1 [Compound 62, methyl 3(S)-[N-benzyloxycarbonyl-3-(1-naphthyl)-L-alanyl-L-histidyl]amino-2(S)-hydroxy-5-methylhexanoate]",53
5,"CC(C)C[C@H](NC(=O)[C@H](Cc1c[nH]cn1)NC(=O)[C@H](Cc1cccc2ccccc12)NC(=O)OCc1ccccc1)[C@@H](O)CC(=O)NNC(=O)CCCc1ccccc1 [Compound 39, N^1 -{4(S)-[N-benzyloxycarbonyl-3-(1-naphthyl)-L-alanyl-L-histidyl]amino-3(S)-hydroxy-6-methylheptanoyl}-N^2-(4-phenylbutyryl)hydrazine]",84
6,"CC[C@H](C)CNC(=O)C[C@H](O)[C@H](CC(C)C)NC(=O)[C@H](Cc1c[nH]cn1)NC(=O)[C@H](Cc1cccc2ccccc12)NC(=O)OCc1ccccc1 [Compound 65, 4(S)-[N-benzyloxycarbonyl-3-(1-naphthyl)-L-alanyl-L-histidyl]amino-3(S)-hydroxy-6-methyl-N-[S-(-)-2-methylbutyl]heptanamide]",99
7,"CCOC(=O)C[C@H](O)[C@H](CC(C)C)NC(=O)[C@H](Cc1c[nH]cn1)NC(=O)[C@H](Cc1cccc2ccccc12)NC(=O)OCc1ccccc1 [Compound 5, ethyl 4(S)-[N-benzyloxycarbonyl-3-(1-naphthyl)-L-alanyl-L-histidyl]amino-3(S)-hydroxy-6-methylheptanoate] (Cbz-[1Nal]-His-[Sta]-OEt)",79
8,"CC(C)C[C@H](NC(=O)[C@H](Cc1c[nH]cn1)NC(=O)[C@H](Cc1cccc2ccccc12)NC(=O)OCc1ccccc1)[C@@H](O)CC(=O)O [Compound 3, 4(S)-[N-benzyloxycarbonyl-3-(1-naphthyl)-L-alanyl-L-histidyl]amino-3(S)-hydroxy-6-methylheptanoic acid] (Cbz-[1Nal]-His-[Sta]-OH)",72
9,"CCCCNC(=O)C[C@H](O)[C@H](CC(C)C)NC(=O)[C@H](Cc1c[nH]cn1)NC(=O)[C@H](Cc1cccc2ccccc12)NC(=O)OCc1ccccc1 [Compound 64, 4(S)-[N-benzyloxycarbonyl-3-(1-naphthyl)-L-alanyl-L-histidyl]amino-N-butyl-3(S)-hydroxy-6-methylheptanamide] (Cbz-[1Nal]-His-[Sta]-NHBu)",95
10,"CCC(C)CNC(=O)C[C@H](O)[C@H](CC(C)C)NC(=O)[C@@H](Cc1c[nH]cn1)NC(=O)[C@H](Cc1cccc2ccccc12)NC(=O)OCc1ccccc1 (stereo partly drawn) [Compound 93, 4(S)-[N-benzyloxycarbonyl-3-(1-naphthyl)-L-alanyl-D-histidyl]amino-3(S)-hydroxy-6-methyl-N-(2-methylbutyl)heptanamide]",99
11,"CCNC(=O)C[C@H](O)[C@H](CC(C)C)NC(=O)[C@H](Cc1c[nH]cn1)NC(=O)[C@H](Cc1cccc2ccccc12)NC(=O)OCc1ccccc1 [Compound 66, 4(S)-[N-benzyloxycarbonyl-3-(1-naphthyl)-L-alanyl-L-histidyl]amino-N-ethyl-3(S)-hydroxy-6-methylheptanamide] (Cbz-[1Nal]-His-[Sta]-NHEt)",96

# Same assay, conditions: concentration of test cpd. 1 × 10^-6 M, pH 7.3, 10 minutes at 37° C., mean of 3 or 4 experiments
row,SMILES,% Inhibition (human renin) [%]
1,"CCC(C)CNC(=O)C[C@H](O)[C@H](CC(C)C)NC(=O)[C@H](CC(C)C)NC(=O)[C@H](Cc1cccc2ccccc12)NC(=O)OCc1ccccc1 (stereo partly drawn) [Compound 207, N-(2-methylbutyl)-4(S)-[N-benzyloxycarbonyl-3-(1-naphthyl)-L-alanyl-L-leucyl]amino-3(S)-hydroxy-6-methylheptanamide]",98.4
2,"CCC(C)CNC(=O)C[C@H](O)[C@H](CC(C)C)NC(=O)C(Cc1cscn1)NC(=O)[C@H](Cc1cccc2ccccc12)NC(=O)OCc1ccccc1 (mixture of isomers) [Compound 238, N-(2-methylbutyl)-4(S)-[N-benzyloxycarbonyl-3-(1-naphthyl)-L-alanyl-3-(1,3-thiazol-4-yl)-DL-alanyl]amino-3(S)-hydroxy-6-methylheptanamide]",98.2
3,"CC[C@H](C)[C@@H](CO)NC(=O)C[C@H](O)[C@H](CC(C)C)NC(=O)[C@H](CC(C)C)NC(=O)[C@H](Cc1cccc2ccccc12)NC(=O)OCc1ccccc1 [Compound 208, N-{4(S)-[N-benzyloxycarbonyl-3-(1-naphthyl)-L-alanyl-L-leucyl]amino-3(S)-hydroxy-6-methylheptanoyl}-L-isoleucinol]",99.1
